Assay results: patent publication US20240239811A1, “5-(5-(PIPERIDIN-4-YL)THIENO[3,2-C]PYRAZOL-2-YL]INDAZOLE DERIVATIVES AND RELATED COMPOUNDS AS MODULATORS FOR SPLICING NUCLEIC ACIDS AND FOR THE T” (REMIX THERAPEUTICS INC., priority 2020, published 2024)
Where a name gives a salt, the structure may show the parent alone.

What was measured:
Type in all cases: cell-based
HTT mRNA = assay: Splicing assay (RT-qPCR) monitoring HTT splice variants, canonical (CJ) and alternative (AJ) junction; settings: 50% response, A673 or K562 cell line, 24 hours; for IC50: decrease in CJ mRNA; for AC50: increase in AJ mRNA
Protocol: (§1) Compounds described herein were used to modulate RNA transcript abundance in cells. The expression of a target mRNA was measured by detecting the formation of an exon-exon junction in the canonical transcript (CJ). A compound mediated exon-inclusion event was detected by observing an increase in formation of a new junction with an alternative exon (AJ). Real-time qPCR assays were used to detect these splicing switches and interrogate the potency of various compounds towards different target genes. A high-throughput real time quantitative PCR (RT-qPCR) assay was developed to measure these two isoforms of the mRNA (CJ and AJ) for an exemplary gene, HTT, together with a control housekeeping gene, GAPDH or GUSB or PPIA, used for normalization. Briefly, the A673 or K562 cell line was treated with various compounds described herein (e.g., compounds of Formula (I)). After treatment, the levels of the HTT mRNA targets were determined from each sample of cell lysate by cDNA synthesis followed by qPCR.
• Cells-to-CT 1-step kit: ThermoFisher A25602, Cells-to-CT lysis reagent: ThermoFisher 4391851C, TaqMan™ Fast Virus 1-Step Master Mix: ThermoFisher 4444436 • GAPDH: VIC-PL, ThermoFisher 4326317E (Assay: Hs99999905_ml)—used for K562/suspension cell lines • GUSB: VIC-PL, ThermoFisher 4326320E (Assay: Hs99999908_ml)—used for K562/suspension cell lines • PPIA: VIC-PL, ThermoFisher 4326316E (Assay: Hs99999904_ml)—used for A673/adherent cell lines
(§2) The A673 cell line was cultured in DMEM with 10% FBS. Cells were diluted with full growth media and plated in a 96-well plate (15,000 cells in 100ul media per well). The plate was incubated at 37° C. with 5% CO2 for 24 hours to allow cells to adhere. An 11-point 3-fold serial dilution of the compounds was made in DMSO then diluted in media in an intermediate plate. Compounds were transferred from the intermediate plate to the cell plate with the top dose at a final concentration of 10 uM in the well. Final DMSO concentration was kept at or below 0.25%. The cell plate was returned to the incubator at 37° C. with 5% CO2 for an additional 24 hours.
(§3) The K562 cell line was cultured in IMDM with 10% FBS. For K562, cells were diluted with full growth media and plated in either a 96-well plate (50,000 cells in 50 uL media per well) or a 384-well plate (8,000-40,000 cells in 45 uL media per well). An 11-point 3-fold serial dilution of the compounds were made in DMSO then diluted in media in an intermediate plate. Compound was transferred from the intermediate plate to the cell plate with the top dose at a final concentration of 10 uM in the well. Final DMSO concentration was kept at or below 0.25%. Final volume was 100 uL for 96-well plate and 50 uL for 384-well plate. The cell plate was then placed in an incubator at 37° C. with 5% CO2 for 24 hours.
The cells were then gently washed with 50 uL-100 uL cold PBS before proceeding to addition of lysis buffer. 30 uL-50 uL of room temperature lysis buffer with DNAse I (and optionally RNAsin) was added to each well. Cells were shaken/mixed thoroughly at room temperature for 5-10 minutes for lysis to take place and then 3 uL-5 uL of room temperature stop solution was added and wells were shaken/mixed again. After 2-5 minutes, the cell lysate plate was transferred to ice for RT-qPCR reaction setup. The lysates could also be frozen at −80° C. for later use.
In some cases, a direct lysis buffer was used. An appropriate volume of 3X lysis buffer (10 mM Tris, 150 mM NaCl, 1.5%-2.5% Igepal and 0.1-1 U/uL RNAsin, pH 7.4) was directly added to either K562 or A673 cells in media and mixed by pipetting 3 times. The plates were then incubated at room temperature with shaking/rocking for 20-50 minutes to allow for lysis to take place. After this time, the cell lysate plate was transferred to ice to set up for the RT-qPCR reactions. The lysates could also be frozen at −80° C. for later use. […]

Target C CJ mRNA = assay: Gene panel canonical junction qPCR assay, Target C; settings: Table 6, decrease in CJ mRNA, read-out: Target C IC50 (decrease in CJ mRNA levels)
Protocol: as §1, §2, §3
(§4) The data analysis was performed by first determining the ΔCt vs the housekeeper gene. This ΔCt was then normalized against the DMSO control (ΔΔCt) and converted to RQ (relative quantification) using the 2^(−ΔΔCt) equation. The RQ were then converted to a percentage response by arbitrarily setting an assay window of 3.5 ΔCt for HTT-CJ and an assay window of 9 ΔCt for HTT-AJ. […] The percentage response was then fitted to the 4 parametric logistic equation to evaluate the concentration dependence of compound treatment. The increase in AJ mRNA is reported as AC50 (compound concentration having 50% response in AJ increase) while the decrease in CJ mRNA levels is reported as IC50 (compound concentration having 50% response in CJ decrease).
(§5) Additional studies were carried out for a larger panel of genes using the protocol provided above. The junction between flanking upstream and downstream exons was used to design canonical junction qPCR assays. At least one of the forward primer, reverse primer or the CY5-labeled 5′ nuclease probe (with 3′ quencher such as ZEN/Iowa Black FQ) was designed to overlap with the exon junction to capture the CJ mRNA transcript. BLAST was used to confirm the specificity of the probeset and parameters such as melting temperature, GC content, amplicon size, and primer dimer formation are considered during their design. Data for the decrease in CJ mRNA levels for three exemplary genes (HTT, SMN2, and Target C) analyzed in this panel are reported as IC50 (compound concentration having […] in CJ decrease).

SMN2 CJ mRNA = assay: Gene panel canonical junction qPCR assay, SMN2; settings: Table 6, decrease in CJ mRNA, read-out: SMN2 IC50 (decrease in CJ mRNA levels)
Protocol: as §1, §2, §3, §4, §5

HTT CJ mRNA = assay: Gene panel canonical junction qPCR assay, HTT; settings: Table 6, decrease in CJ mRNA, read-out: HTT IC50 (decrease in CJ mRNA levels)
Protocol: as §1, §2, §3, §4, §5

| Structure (SMILES) | IC50 (HTT mRNA) | AC50 (HTT mRNA) | IC50 (Target C CJ mRNA) | IC50 (SMN2 CJ mRNA) | IC50 (HTT CJ mRNA) |
| --- | --- | --- | --- | --- | --- |
| Cn1cc2cc(-c3nc4sc(N5CCNCC5)c(Cl)c4s3)cc(F)c2n1 [Compound 147] | 100 to 1000 nM | 100 to 1000 nM | 1000 to 10000 nM | < 100 nM | 100 to 1000 nM |
| CCN1CCC(n2cc3cc(-c4cc(F)c5nn(C)cc5c4)sc3n2)CC1 [Compound 149, 5-[2-(1-ethylpiperidin-4-yl)thieno[2,3-c]pyrazol-5-yl]-7-fluoro-2-methylindazole] | < 100 nM | < 100 nM | 100 to 1000 nM | < 100 nM | < 100 nM |
| CN1CCC(n2cc3cc(-c4cc(F)c5nn(C)cc5c4)sc3n2)CC1 [Compound 150, 7-fluoro-2-methyl-5-[2-(1-methylpiperidin-4-yl)thieno[2,3-c]pyrazol-5-yl]indazole] | 100 to 1000 nM | 100 to 1000 nM | 100 to 1000 nM | < 100 nM | 100 to 1000 nM |
| CN1CCC(c2cc3sc(-c4cc(F)c5nn(C)cc5c4)nc3s2)CC1 [Compound 151, 7-fluoro-2-methyl-5-[5-(1-methylpiperidin-4-yl)thieno[2,3-d][1,3]thiazol-2-yl]indazole] | < 100 nM | < 100 nM | < 100 nM | < 100 nM | < 100 nM |
| CN(C)C1CCN(c2cc3sc(-c4cc(F)c5nn(C)cc5c4)nc3s2)CC1 [Compound 154, 1-[2-(7-fluoro-2-methylindazol-5-yl)thieno[2,3-d][1,3]thiazol-5-yl]-N,N-dimethylpiperidin-4-amine] | 100 to 1000 nM | 100 to 1000 nM | 100 to 1000 nM | < 100 nM | 100 to 1000 nM |
| Cc1cn2cc(-n3cc4cc(C5CCNCC5)sc4n3)cc(C)c2n1 [Compound 155] | 100 to 1000 nM | 100 to 1000 nM | 1000 to 10000 nM | < 100 nM | 100 to 1000 nM |
| Cc1cn2cc(-n3cc4cc(C5CCNCC5)sc4n3)cc(F)c2n1 [Compound 156] | < 100 nM | 100 to 1000 nM | 100 to 1000 nM | < 100 nM | < 100 nM |
| Cc1nc2c(F)cc(-n3cc4cc(C5CCNCC5)sc4n3)cc2o1 [Compound 157] | 100 to 1000 nM | 100 to 1000 nM | 100 to 1000 nM | < 100 nM | 100 to 1000 nM |
| Cc1cn2cc(-n3cc4cc(C5CCNCC5)sc4n3)ncc2n1 [Compound 158] | 100 to 1000 nM | 100 to 1000 nM | 100 to 1000 nM | 100 to 1000 nM | 100 to 1000 nM |
| Cn1cc2cc(-c3cc4cn([C@@H]5CCNC5)nc4s3)cc(F)c2n1 [Compound 160, (R)-5-(7-fluoro-2-methyl-2H-indazol-5-yl)-2-(pyrrolidin-3-yl)-2H-thieno[2,3-c]pyrazole hydrochloride] | 1000 to 10000 nM | 1000 to 10000 nM | > 10000 nM | 100 to 1000 nM | 1000 to 10000 nM |
| Cn1cc2cc(-c3cc4cn(C5CCOCC5)nc4s3)cc(F)c2n1 [Compound 161, 7-fluoro-2-methyl-5-[2-(oxan-4-yl)thieno[2,3-c]pyrazol-5-yl] indazole] | > 10000 nM | > 10000 nM | > 10000 nM | > 10000 nM | > 10000 nM |
| Cc1cn2nc(-c3cc4cn(C5CCNCC5)nc4s3)cc(C)c2n1 [Compound 162, 4-(5-{2,8-dimethylimidazo[1,2-b]pyridazin-6-yl}thieno[2,3-c]pyrazol-2-yl)piperidine] | < 100 nM | < 100 nM | 100 to 1000 nM | < 100 nM | < 100 nM |
| Cc1cn2nc(-n3cc4cc(C5CCNCC5)sc4n3)nc2c(C)n1 [Compound 163, 4-(2-{6,8-dimethyl-[1,2,4]triazolo [1,5-a]pyrazin-2-yl}thieno[2,3-c]pyrazol-5-yl)piperidine] | 1000 to 10000 nM | 1000 to 10000 nM | 1000 to 10000 nM | 1000 to 10000 nM | 1000 to 10000 nM |
| Cc1cn2nc(-n3cc4cc(C5CCNCC5)sc4n3)cc2c(C)n1 [Compound 164] | 1000 to 10000 nM | 1000 to 10000 nM | 1000 to 10000 nM | 1000 to 10000 nM | 1000 to 10000 nM |
| Cc1cn2cc(-n3cc4cc(C5CCNCC5)sc4n3)cc(Cl)c2n1 [Compound 165] | < 100 nM | < 100 nM | 100 to 1000 nM | < 100 nM | < 100 nM |
| Cc1cn2cc(-n3cc4sc(C5CCNCC5)cc4n3)cc(F)c2n1 [Compound 166, 4-(2-{8-fluoro-2-methylimidazo[1,2-a]pyridin-6-yl}thieno[3,2-c]pyrazol-5-yl)piperidine] | 100 to 1000 nM | 100 to 1000 nM | 1000 to 10000 nM | 100 to 1000 nM | 100 to 1000 nM |
| Cc1nc2c(F)cc(-n3cc4sc(C5CCNCC5)cc4n3)cc2o1 [Compound 167] | 100 to 1000 nM | 100 to 1000 nM | 1000 to 10000 nM | 100 to 1000 nM | 100 to 1000 nM |
| Cc1nc2c(F)cc(-n3cc4sc(C5CCNCC5)cc4n3)cc2s1 [Compound 168] | 1000 to 10000 nM | 1000 to 10000 nM | > 10000 nM | 100 to 1000 nM | 1000 to 10000 nM |
| Cc1cn2cc(-n3cc4sc(C5CCNCC5)cc4n3)ncc2n1 [Compound 169] | 1000 to 10000 nM | 1000 to 10000 nM | 1000 to 10000 nM | 1000 to 10000 nM | 1000 to 10000 nM |
| Cc1cn2nc(-n3cc4sc(C5CCNCC5)cc4n3)nc2c(C)n1 [Compound 170] | 1000 to 10000 nM | 1000 to 10000 nM | 1000 to 10000 nM | 1000 to 10000 nM | 1000 to 10000 nM |
| Cc1cn2nc(-n3cc4sc(C5CCNCC5)cc4n3)cc2c(C)n1 [Compound 171] | 100 to 1000 nM | 100 to 1000 nM | 1000 to 10000 nM | 100 to 1000 nM | 100 to 1000 nM |
| Cc1cn2cc(-n3cc4sc(C5CCNCC5)cc4n3)cc(Cl)c2n1 [Compound 172] | 100 to 1000 nM | 100 to 1000 nM | 1000 to 10000 nM | 100 to 1000 nM | 100 to 1000 nM |
| Cc1cn2cc(-n3cc4sc(C5CCNCC5)cc4n3)cc(C)c2n1 [Compound 173] | 1000 to 10000 nM | 1000 to 10000 nM | > 10000 nM | 1000 to 10000 nM | 1000 to 10000 nM |
